Experimental data reported in US7351858B2, “Ortho-substituted benzoic acid derivatives for the treatment of insulin resistance” (AstraZeneca AB, priority 2002, dated 2008).

Target: T1, human PPAR alpha (Homo sapiens, UniProt Q07869)
T1 construct: expressed in transfected cells; host or cells: U2-OS (human osteogenic sarcoma), transient electroporation of a pSG5-based expression vector
T1 sequence (Q07869 239-466 limits assumed): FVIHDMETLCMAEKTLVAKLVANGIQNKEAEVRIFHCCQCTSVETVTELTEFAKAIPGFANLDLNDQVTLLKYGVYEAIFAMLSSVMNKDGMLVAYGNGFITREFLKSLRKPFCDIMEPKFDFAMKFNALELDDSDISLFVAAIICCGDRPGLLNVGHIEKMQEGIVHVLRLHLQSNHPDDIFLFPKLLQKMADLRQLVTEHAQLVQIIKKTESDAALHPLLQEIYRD
Experiment: GAL4-PPARα ligand binding domain luciferase reporter transactivation assay in transiently transfected U2-OS cells
Type: cell-based
Details: about 24 hours exposure, concentration giving 50% of maximal activation by reference compound ETYA
Experimental: U2-OS, (Osteogenic sarcoma, Human) was purchased from ATCC, USA. Cells were expanded and refrozen in batches from passage number six. Cells were cultured in Dulbecco's modified Eagle medium (DMEM) with 25 mM glucose, 2 mM glutamine or 4 mM L-alanyl-L-glutamine, 10% fetal calf serum, at 5% CO2. Phosphate buffered saline (PBS) without addition of calcium or magnesium was used. All cell culture reagents were from Gibco (USA) and 96-well cell culture plates were purchased from Wallach.
Standard recombinant DNA techniques were carried out as described by Ausubel (7). The Luciferase reporter vector, pGL5UAS (clone consists of five copies of the GAL4 DNA binding sequence, 5′-[…]-3′, cloned into the SacI/XhoI sites of pGL3-Promoter (Promega). The SacI/XhoI fragment carrying the UAS sites was constructed using annealed overlapping oligonucleotides.
Expression vectors used are based upon pSG5 (Stratagene). All vectors contain an EcoRI/NheI fragment encoding the DNA binding domain of GAL4 (encoding amino acid positions 1-145 of database accession number P04386) followed by an in-frame fusion to a fragment encoding the nuclear localisation sequence from T antigen of Polyoma Virus. […]
After adjustment of the amount of cell medium to 75 μl in each well, 50 μl test compound solution was added. […] After lysis, luciferase activity was measured in a 1420 Multiwell counter, Victor, from Wallach. […]

Compound	EC50
CCN(Cc1ccc(C(F)(F)F)cc1)C(=O)COc1ccc(CCOc2ccccc2C(=O)O)cc1 [Example 5, 2-[2-(4-{2-[Ethyl(4-trifluoromethylbenzyl)amino]-2-oxoethoxy}phenyl)ethoxy]benzoic acid]	48 nM
CCN(Cc1ccc(Cl)cc1)C(=O)COc1ccc(CCSc2ccccc2C(=O)O)cc1 [Example 3, 2-{[2-(4-{2-[(4-chlorobenzyl)(ethyl)amino]-2-oxoethoxy}phenyl)ethyl]thio}benzoic acid]	499 nM
